Data from article PMC12040169 (PLOS Biology, 2025).

Experiment: in vitro
Conditions: human, hela cells, % viability

| SMILES | viability at 28.5 h, 10 µM [%] |
| --- | --- |
| O=C(NCc1ccc2c(c1)OCO2)c1ccc(Oc2ccccc2)cc1 [CBK293982] | 91.4 |
| Cc1n[n+]2c(C(=O)Nc3ccc(S(=O)(=O)Nc4nccs4)cc3)c(C)[n-]n2c1[N+](=O)[O-] [CBK293983] | 83.2 |
| CC(Oc1cccc(Cl)c1)c1nc(-c2cccs2)no1 (stereo not drawn) [CBK293984] | 90.8 |
| CC(Oc1cccc(Br)c1)c1nc(-c2ccc(-n3cccc3)cc2)no1 (stereo not drawn) [CBK293986] | 102 |
| O=C(CCCn1cc([N+](=O)[O-])cn1)Nc1cc(C(F)(F)F)ccc1Cl [CBK293987] | 108 |
| O=C(CSc1nnc(-c2ccco2)[nH]1)Nc1cccc(Cl)c1 [CBK293990] | 96.7 |
| N#Cc1c(NC(=O)CSc2nc(=O)cc(N)n2CCc2ccccc2)sc2c1CCCC2 [CBK293993] | 82.4 |
| CCOc1ccccc1NC(=O)c1cc2cccnc2n(Cc2ccc(Cl)cc2)c1=O [CBK294395] | 109 |
| CC(=O)N1N=C(COc2ccc(C)cc2)OC1c1ccc(Br)cc1 (stereo not drawn) [CBK294396] | 103 |
| CC(=O)N1N=C(COc2ccc3c(c2)OCO3)OC1c1ccc(C)cc1 (stereo not drawn) [CBK294397] | 83 |
| O=c1cc(CSc2nnc(-c3ccccc3)[nH]2)nc2[nH]cnn12 [CBK294398] | 96.1 |
| O=C(Nc1nnc(SCc2cc(=O)n3nc[nH]c3n2)s1)c1ccc(F)cc1 [CBK294399] | 90.2 |
| Cc1ccc(CNC(=O)c2nnc(C(=O)Nc3cccc(Cl)c3)s2)o1 [CBK294404] | 95.2 |
| O=C(NCCN1CCOCC1)c1nnc(C(=O)Nc2cccc(Cl)c2)s1 [CBK294405] | 93.9 |
| O=C(Nc1cccc(Cl)c1)c1nnc(C(=O)NC2CCCCC2)s1 [CBK294406] | 92.6 |
| CCCCNC(=O)c1nnc(C(=O)Nc2cccc(Cl)c2)s1 [CBK294407] | 87.1 |
| Cc1c(C(=O)Nc2cccc(C(F)(F)F)c2)sc2nc(-c3ccccc3)cn12 [CBK294408] | 87.9 |

| SMILES | viability at 28.5 h, 10 µM [%] |
| --- | --- |
| CC(C)Cc1cnc2c(c1SCc1ccc(F)cc1)c(=O)n(C)c(=O)n2C [CBK294409] | 95.6 |
| Cc1cc(=O)[nH]c(SCc2cc(=O)c3ccccc3[nH]2)n1 [CBK294410] | 86.3 |
| CN(C(=O)CSc1nc2ccccc2nc1Cc1ccc(Cl)cc1)C1CCCCC1 [CBK294411] | 104 |
| CCOc1ccc(CN(Cc2cc(=O)n3nc(-c4ccccc4)sc3n2)CC(C)C)cc1 [CBK294412] | 103 |
| COCCn1c(SCc2ccc([N+](=O)[O-])cc2)nc2c([nH]c3ccccc32)c1=O [CBK294415] | 90 |
| COc1ccc(C2C(C(=O)Nc3ccc(C)cc3)=C(C)Nc3ncnn32)cc1OC (stereo not drawn) [CBK294416] | 90.9 |
| Cn1c(NC(=O)c2ccccc2[N+](=O)[O-])cc(=O)n(C)c1=O [CBK294417] | 84 |
| O=C1CCc2cc(S(=O)(=O)NC(c3ccccc3)c3ccccc3)cc3c2N1CCC3 [CBK294418] | 95.6 |
| CC1C(=O)N2CCCc3cc(S(=O)(=O)NCc4ccc5c(c4)OCO5)cc1c32 (stereo not drawn) [CBK294419] | 107 |
| COc1cccc2sc(N(Cc3cccnc3)C(=O)c3ccc(S(=O)(=O)N(C)C)cc3)nc12 [CBK294420] | 103 |
| O=C(CCS(=O)(=O)c1ccccc1)N(Cc1cccnc1)c1nc2c(F)cccc2s1 [CBK294422] | 81.5 |
| COc1ccc2sc(N(Cc3cccnc3)C(=O)CCc3ccccc3)nc2c1 [CBK294423] | 81.2 |
| CSc1ccccc1NC(=O)c1cccn(Cc2ccc(C)cc2)c1=O [CBK294426] | 87 |
| COc1ccc(-c2ccc(OCCNC(=O)c3cccc(F)c3)nn2)cc1 [CBK294428] | 87.1 |
| O=C(NCCOc1ccc(-c2ccc(F)cc2)nn1)c1ccc(Br)o1 [CBK294429] | 83.1 |
| COc1cccc(NC(=O)Cn2cc(OC)c(=O)cc2CN2CCOCC2)c1 [CBK294430] | 87.2 |
